pKi: −log10 of the molar value.
Experiments:
Carbonic anhydrase 1 = Carbonic anhydrase 1 (Homo sapiens, UniProt P00915)
[1] = target: T1, Beta-carbonic anhydrase 1 (Mycobacterium tuberculosis, UniProt P9WPJ7)
T1 sequence (P9WPJ7 whole entry): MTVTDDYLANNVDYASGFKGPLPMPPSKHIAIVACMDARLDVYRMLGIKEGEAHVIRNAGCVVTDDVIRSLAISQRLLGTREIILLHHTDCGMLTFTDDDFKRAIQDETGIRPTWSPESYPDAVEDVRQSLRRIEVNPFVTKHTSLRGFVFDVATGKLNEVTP

Carbonic anhydrase 2 = Carbonic anhydrase 2 (Homo sapiens, UniProt P00918)

Chain of Carbonic anhydrase 1 (P00915 whole entry): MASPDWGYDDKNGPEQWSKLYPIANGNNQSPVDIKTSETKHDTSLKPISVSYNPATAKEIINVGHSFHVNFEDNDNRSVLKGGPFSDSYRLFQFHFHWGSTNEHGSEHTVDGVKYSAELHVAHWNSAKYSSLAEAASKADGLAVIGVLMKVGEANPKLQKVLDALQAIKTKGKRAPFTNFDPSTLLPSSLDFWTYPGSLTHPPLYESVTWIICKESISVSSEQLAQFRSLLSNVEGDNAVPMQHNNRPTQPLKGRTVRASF

Row | Compound | pKi (Carbonic anhydrase 1) | pKi [1] | pKi (Carbonic anhydrase 2)
1 | NC(=O)c1[nH]c2ccc(S(N)(=O)=O)cc2c1-c1ccccc1 | 7.32 | 8.12 | 7.51
2 | NS(=O)(=O)c1ccc(S(=O)(=O)Nc2cccc3c(Cl)c[nH]c23)cc1 | 7.01 |  | 
